According to patent publication US20050233984A1, “Composition for preventing or treating degenerative brain diseases comprising a hydrolysate of ginsenosides” (Digital Biotech Co., Ltd., priority 2002, published 2005):

Experiments:
[1] = Degree of BBB penetration: pharmacokinetics in blood and brain by LC-mass; format: in vivo, Sprague-Dawley rat; details: SD rat; for detection of the peak in the brain tissue sample: 15 minutes after administration of 1 mg/kg of Rg1 or Rb1, FIGS. 10a and 10b
Procedure: A male Sprague-Dawley rat (weight 250-300 g) was lightly anesthetized with ether and catheterized with a polyethylene tube (PE-50) in the femoral artery and vein. After the rat recovered, a saline solution containing 1 mg/kg of Rg1 or Rb1 was administered into the femoral vein through the intravenous bolus administration. 300 μl blood samples were collected from the rat's femoral artery at 2, 5, 10, 15, 20, 30, 45 and 60 minutes after the administration. Each blood sample was centrifuged to obtain 100 μl of plasma. A plasma sample was prepared as in (2) of step 1 with the plasma. 20 μl of the sample was injected into the LC mass system as in Step 1, and ginsenosides Rg1 and Rb1 and their metabolites PPD and PPT were quantified. The plasma concentrations of ginsenosides and their metabolites were calculated in the forms of weight per plasma (ml) (in case of ginsenosides) or peak size (in case of metabolites).
Immediately after collecting the blood samples, the rats were decapitated and brain tissues were obtained therefrom. The tissues were rinsed with ice-cooled saline, placed in a 15 ml Falcon tube and then weighed precisely. Acetonitrile was added to the tube in an amount twice the weight of the tissue sample, and the sample was homogenized using a tissue homogenizer (Ultra-Turrax T25, JANKE&KUNKEL IKA-Labortechnik). The mixture was centrifuged at 3,000 rpm for 20 minutes. 300 μl of the resulting supernatant was dried in a speed-vac, and 300 μl of acetonitrile was added thereto. 20 μl of the resulting mixture was injected in the LC mass system as in Step 1 to quantify the concentrations of ginsenosides and their metabolites in the brain, and the measured concentrations were represented by weight per gram of the brain tissue or peak size.
Separation and detection conditions for ginsenosides Rg1 and Rb1 were as described in Step 1, and those for metabolites PPD and PPT were as follows:
The transfer rate of the substances into the brain (Kbrain) can be represented by the ratio of the mean concentration of the substance in the brain (Cmean,brain) to the mean plasma concentration (Cmean,plasma) as in Equation 1. [formula]
The mean concentration of a substance can be determined by dividing the area under the concentration-time curve corresponding to time 0 to t by t and, accordingly, the transfer rate of the substance into the brain (Kbrain) can be calculated by Equation 2 shown below. [formula]

[2] = target: T1, beta-secretase (Rattus norvegicus, UniProt P56819); test: β-secretase inhibitory activity, fluorometric, B103 cell extract; format: biochemical
T1 construct: the cells were lysed up with MEST buffer; endogenous in cells; host or cells: B103 neuroblastoma cell extract (Triton X-100 lysate)
T1 sequence (P56819 46-501): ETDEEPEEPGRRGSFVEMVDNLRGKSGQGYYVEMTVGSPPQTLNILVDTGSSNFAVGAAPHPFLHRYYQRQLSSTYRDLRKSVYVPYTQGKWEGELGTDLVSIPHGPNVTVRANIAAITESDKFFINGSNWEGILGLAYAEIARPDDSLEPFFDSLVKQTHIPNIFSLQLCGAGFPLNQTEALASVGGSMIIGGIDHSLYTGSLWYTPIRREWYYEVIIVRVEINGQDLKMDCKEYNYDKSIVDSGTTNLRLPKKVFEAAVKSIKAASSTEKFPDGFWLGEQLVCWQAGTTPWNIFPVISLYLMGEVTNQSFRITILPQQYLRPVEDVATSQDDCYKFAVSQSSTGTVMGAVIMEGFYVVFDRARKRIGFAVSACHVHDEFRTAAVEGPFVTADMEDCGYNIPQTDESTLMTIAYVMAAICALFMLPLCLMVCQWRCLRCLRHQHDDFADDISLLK
Procedure: Peptide H4848 (Bachem), a known suppressor of beta-secretase, was used for a comparative agent and PPT was used as a test compound.
1.5×10^6 cells of neuroblastoma B103 cell line secreting APP were plated on a 100 mm dish with DMEM medium containing 10% FBS, and cultured overnight. Then, the cells were lysed up with MEST buffer (20 mM MES, 0.15 M NaCl, 0.5% Triton X-100, pH 6.0 (Bachem)) to obtain a cell extract.
[…] sodium acetate buffer (pH 4.5), distilled water, beta-secretase inhibitor, 5 μM M2465 (Bachem) as a substrate for beta-secretase and MEST buffer were mixed in order, in amounts as shown in Table 5.
The resulting mixtures were reacted at […] for 2 hours, and then read by a fluorometer with 360 nm excitation and 508 nm emission wavelengths. Enzyme inhibitory activity was determined based on the enzyme activity of the control.

Structure (SMILES): CC(C)=CCCC(C)(O)[C@H]1CC[C@]2(C)[C@@H]1[C@H](O)C[C@@H]1[C@@]3(C)CC[C@H](O)C(C)(C)[C@@H]3CC[C@]12C (stereo in doubt) [PPD, protopanaxadiol]
- detection of the peak in the brain tissue sample [1]: well detected

Structure (SMILES): CC(C)=CCC[C@](C)(O)[C@H]1CC[C@]2(C)[C@@H]1[C@H](O)C[C@@H]1[C@@]3(C)CC[C@H](O)C(C)(C)[C@@H]3[C@@H](O)C[C@]12C [PPT, protopanaxatriol]
- Enzyme Inhibition (% of control) ([2]; 100 nM PPT): 0 % of control
- Enzyme Inhibition (% of control) ([2]; 1 μM PPT): 0.6 % of control
- Enzyme Inhibition (% of control) ([2]; 10 μM PPT): 3.31 % of control
- Enzyme Inhibition (% of control) ([2]; 100 μM PPT): 18.1 % of control
- beta-secretase inhibitory activity versus comparative group (in words) ([2]; comparative group: H4848 100 nM): as good as the comparative group
- detection of the peak in the brain tissue sample [1]: well detected
- transfer rate into the brain (Kbrain) ([1]; calculated with Equations 1 and 2 (mean brain / mean plasma concentration)): 130±46.4%
- concentration in the plasma versus the brain tissue (in words) ([1]; metabolite after 1 mg/kg intravenous ginsenoside, FIG. 12): almost identical
